Test results published in patent EP0904070B1, “THE USE OF BUCKMINSTERFULLERENE FOR TREATMENT OF NEUROTOXIC INJURY” (F. HOFFMANN-LA ROCHE AG, priority 1996, dated 1997).

What was measured:
[1] = Spin-label/EPR membrane experiments (5- or 16-doxyl ketostearic acid in brain lipids); format: physicochemical, mouse; conditions: for Lipid/aqueous partition factor: f = hL/hA, measured for 16-doxylstearic acid
Protocol: Values are mean ± SEM, n=8-12 per conditions. * = p<0.05 vs. untreated injury condition, using ANOVA followed by Student-Newman-Keuls test for multiple comparisons. ** = p<0.05 R-3b different than O-3a. […] The spin labels were added to lipids extracted from adult mouse brain at a ratio of 1:100. EPR settings were the same as those listed in the legend for Figure 9. Both isomers produce a shift in the order parameter (S) of the 5-doxyl group, but O-3a produced a greater change in S (Table 1).

cortical neurons [2] = assay: NMDA excitotoxic neuronal injury in neuron-astrocyte co-cultures (LDH efflux); format: cell-based, Mouse; conditions: for reduction of neuronal death from NMDA: 300(M, co-applied with NMDA for 10 minutes, assessed at 24 hours), all experiments performed to date
Protocol: (§1) Mouse neocortical cultures were prepared as neuron-astrocyte co-cultures (approximately 50% astrocytes) (Rose et al., 1992) or as neuronal cultures (< 2% astrocytes). Mouse embryos (gestational day 15) are removed from pregnant anesthetized Swiss-Webster mice, and the neocortex is dissected away from other brain structures. After brief incubation in trypsin, the cells are dissociated by trituration, and the cell suspension is then diluted into plating medium and plated onto previously-prepared 24-well Plastek culture plates coated with poly-D-lysine/laminin (for neuronal cultures) or onto an existing bed of astrocytes (for co-cultures). After 1-2 days in vitro, a partial exchange with glial conditioned medium is made for "pure" neuronal cultures, and cytosine arabinoside (3µM) is added immediately after feeding to inhibit glial proliferation. Mixed cultures are fed biweekly with growth medium until 11-12 days in vitro, when they are fed with serum-free MS containing 2 mM L-glutamine. Unless otherwise stated, cells were used at 14-16 days in vitro.
Carboxyfullerene (3-300 (M) was co-applied to neuron-astrocyte co-cultures described above with NMDA for assessment of neuroprotection. Brief exposure to NMDA in the presence of the carboxyfullerene was carried out by triple exchange of the medium with HBBSS, followed by addition of 50µM- 500µM NMDA plus carboxyfullerene for 10 minutes. The NMDA and carboxyfullerene were removed by quadruple exchange of the medium with MS, and the cultures were placed in the humidified, CO2 (5%), 37°C incubator for 24 hours, when the extent of injury was assessed.
Neuronal death was assessed at 24 hours after NMDA or AMPA administration by phase contrast microscopy at 200-400x, and by measurement of lactate dehydrogenase (LDH) efflux from dying cells into the bathing medium (Koh and Choi, 1987). Quantitation of cell death was confirmed in some experiments by trypan blue or propidium iodide staining and cell counting.

[3] = Spin-trap (DMPO) electron paramagnetic resonance spectroscopy, superoxide radical scavenging (xanthine + xanthine oxidase); conditions: compound co-incubated with xanthine oxidase and xanthine
[4] = Spin-trap (DMPO) electron paramagnetic resonance spectroscopy, hydroxyl radical scavenging; conditions: for scavenging of •OH by EPR: •OH from 100 µM H2O2 in Fe2+ (Fenton reaction), 100 mM DMPO, 4 µM compound
Protocol: Hydroxyl radical (spectra on left): ^•OH in the presence of DMPO alone (top), in the presence of 4 µM O-3a (middle), or in the presence of 4 µM R-3b (bottom). Superoxide radical (right): O2^•- in DMPO alone (top), in the presence of 400 µM O-3a (middle), in the presence of 400 µM R-3b (bottom). The arrow designates a spurious signal due to an unknown radical in the cavity. The sample was analyzed in a quartz flat cell (60 x 10 x 0.25 mm) in a Bruker 200, X-band EPR spectrometer. Settings were power = 1.6 mW, modulation = 1 G, field modulation = 100 Hz, R.G. = 3.2x10^5.

cortical neurons [5] = assay: AMPA excitotoxic neuronal injury in neuron-astrocyte co-cultures (LDH efflux); format: cell-based, Mouse
Protocol: as §1, with “Mouse” for “Mouse neocortical cultures were prepared as neuron-astrocyte co-cultures (approximately 50% astrocytes) (Rose et al., 1992) or as neuronal cultures (< 2% astrocytes). Mouse”

[6] = system: endothelial cell cultures; assay: Protection from injury in endothelial cell cultures; format: cell-based; conditions: compared with R-3b
hepatocytes = assay: Protection from injury in hepatocytes; format: cell-based; conditions: compared with R-3b
[7] = system: FALS mice (Gurney GI strain); assay: Survival in a transgenic model of amyotrophic lateral sclerosis; format: in vivo; conditions: 15 mg/kg/day, intraperitoneal mini-osmotic pumps from 10 weeks of age
Protocol: The G1 line, with 18 copies and 4 times the SOD activity of wildtype animals, develops motor neuron death by 3-4 months of age, with hindlimb weakness, impaired grooming, and thinning along their flanks. Affected mice were dead before 5 months of age (Gurney et al., 1994).
C60(C(COOH)2)3 was used to treat FALS mice (Gurney GI strain) to determine its ability to treat FALS. At 10 weeks of age, Alzet mino-osmotic pumps (28 day, 6 (l/day, 15 mg/kg/day) containing C60(C(COOH)2)3 (the mixed isomers, which consist of >90% O-3a) or saline were implanted intraperitoneally. The pumps were replaced at 14 weeks of age. Videotaped assessments of open field walking were performed and scored using the Bresnahan scale for spinal cord injury (Basso et al., 1995). As reported by Gurney and colleagues, these animals develop motor symptoms by approximately 90 days of age, and are moribund between 125 and 145 days of age.
The 8 day increase in survival reached statistical significance (p=0.041), by t-test. There was no difference in survival for FALS mice who received no pumps (123 days, n=4) or those treated with saline-filled pumps (125 days, n=6).

NMDA receptors = assay: 45Ca2+ tracer experiments, NMDA-stimulated calcium accumulation in cultured neurons; format: cell-based, Mouse; conditions: co-application of up to 300 (M with NMDA (300 (M), 10 minutes))
Protocol: To verify that protection against NMDA-induced neuronal cell injury was not due to a reduction in NMDA-induced calcium influx, ^45Ca^2+ tracer studies were performed. Cultures were washed twice with HBBSS and then exposed to NMDA (300 (M), either alone or with C60(C(COOH)2)3, in HBBSS containing tracer ^45Ca^2+ (0.5 (Ci/culture well; NEN, Boston, MA). The exposure was terminated after 10 minutes by exchanging the medium four times with unlabelled HBBSS, followed by lysis of the cells by addition of 0.2% sodium dodecyl sulfate (SDS). The cells were left in SDS for 2 hours, and the lysate was then transferred to scintillation vials. An additional wash of each culture well with SDS was added to the vial, which then underwent (-counting.

wild-type animals = assay: Tolerability in wild-type animals treated two months; format: in vivo, mice; conditions: 15 mg/kg/day
[8] = system: Cortical neurons in glia-deficient culture; assay: Serum deprivation apoptotic neuronal death in glia-deficient cultures (trypan blue cell counting); format: cell-based, Mouse; conditions: 10 (M, 48 hours after onset of serum-deprivation); 10 µM
Protocol: as §1, with “vitro. […]” for “vitro.”
Additionally, neuronal cell death was determined at 48 hours removal of serum by counting cells that are no longer able to exclude trypan blue.

[9] = Solubility in water / aqueous solution; format: physicochemical
Text: Solutions of carboxyfullerene were translucent brown.

Which results are given for C60(C(COOH)2)3 [Compound R-3b]?
Lipid/aqueous partition factor [1]: 0.6; neuroprotective activity (in words) (cortical neurons [2]; excitotoxic injury by NMDA and AMPA, insult not stated separately): effective neuroprotectant; superoxide radical (spin adduct DMPO-OOH) EPR signal [3]: eliminated the superoxide radical signal; scavenging of •OH by EPR [4]: extremely potent scavengers

Which results are given for C60(C(COOH)2)3 [Compound O-3a]?
Lipid/aqueous partition factor [1]: 1.0 ± 0.2; entry into the lipid bilayer ([1]; inferred from order parameter and 16-doxyl signal): to a greater extent than R-3b; protection from injury produced by application of NMDA, compared with R-3b (cortical neurons [2]; Fig. 10 A, n=8-12 per condition): slightly better protection; superoxide radical (spin adduct DMPO-OOH) EPR signal [3]: eliminated the superoxide radical signal; hydroxyl radical (spin adduct DMPO-OH) EPR signal ([4]; 150 (M compound included with H2O2, 15 minute period)): elimination of this OH signal; scavenging of •OH by EPR [4]: extremely potent scavengers; protection against AMPA-induced neuronal death, compared with R-3b (cortical neurons [5]; Fig. 10 B, n=8-12 per condition): substantially better protection; protection from injury in endothelial cell cultures [6]: enhanced protection over R-3b; protection from injury in hepatocytes (hepatocytes): enhanced protection over R-3b

For C60(C(COOH)2)3, which onset of symptoms [7] is on record?
Its onset of symptoms is “delay in onset of symptoms”.

What about the delay in death ([7]; versus saline, p = 0.041, mixed isomers, >90% O-3a) of the same substance?
Its delay in death is 8 ± 2.2 days.

What about the “45Ca2+ accumulation” value (NMDA receptors) of the same substance?
Its value is “not affected”.

What about the “adverse health or behavioral effects” value (wild-type animals; n=6) of the same substance?
Its value is “no adverse health or behavioral effects”.

What about the “weights versus untreated littermates” value (wild-type animals; within genders) of the same substance?
Its value is “similar”.

What about the “reduction of neuronal death from NMDA” value (cortical neurons [2]) of the same substance?
Its value is “nearly complete protection”.

And the “reduction of neuronal death from NMDA” value (cortical neurons [2]; 300 µM)?
The value was “at least 60%”.

And the “reduction in neuronal cell death (NMDA)” value (cortical neurons [2]; pooled data from three experiments (Fig. 5))?
Its value is 75%.

And the “reduction of neuronal cell death from AMPA” value (cortical neurons [5]; 100 (M, 24 hours exposure, MK-801 (10 (M) included, data from 4 experiments pooled)), 100 µM)?
Its value is greater than 80%.

What about the “reduction in neuronal death (serum deprivation)” value [8] of the same substance?
Its value is 50%.

And the soluble in water [9]?
The soluble in water was “at least 50 mM”.
